In ChEMBL document CHEMBL1212936, “Discovery of 2-[1-(4-chlorophenyl)cyclopropyl]-3-hydroxy-8-(trifluoromethyl)quinoline-4-carboxylic acid (PSI-421), a P-selectin inhibitor with improved pharmacokinetic properties and oral efficacy in models of vascular injury” (J Med Chem, 2010):
In brackets after ≈: the same amount, converted by molar mass.

What was measured:
[1] = Clearance in Beagle dog at 2 mg/kg, iv and 10 mg/kg, po; format: ADME, organism-based, Canis lupus familiaris; details: in vivo
[2] = Oral bioavailability in cynomolgus monkey at 5 mg/kg; format: ADME, organism-based, Macaca fascicularis; details: in vivo
[3] = Physiological stability of the compound in simulated intestinal fluid assessed as compound remaining after 8 hrs in presence of 20% acetonitrile; format: physicochemical; details: read-out: Stability
[4] = Physiological stability of the compound at pH 4.5 assessed as compound remaining after 4 hrs in presence of 20% acetonitrile; format: physicochemical; details: read-out: Stability
[5] = Physiological stability of the compound at pH 7.4 assessed as compound remaining after 24 hrs in presence of 20% acetonitrile; format: physicochemical; details: read-out: Stability
[6] = Physiological stability of the compound at pH 9 assessed as compound remaining after 20 hrs in presence of 20% acetonitrile; format: physicochemical; details: read-out: Stability
[7] = Physiological stability of the compound at pH 7.4 assessed as compound remaining after 4 hrs in presence of 20% acetonitrile; format: physicochemical; details: read-out: Stability
[8] = molecular target: T1, P-selectin glycoprotein ligand 1 (Homo sapiens) (UniProt Q14242); assay: Binding affinity to recombinant PSGL-1 assessed as saturation transfer difference at 100 uM by NMR analysis
T1 sequence (whole entry): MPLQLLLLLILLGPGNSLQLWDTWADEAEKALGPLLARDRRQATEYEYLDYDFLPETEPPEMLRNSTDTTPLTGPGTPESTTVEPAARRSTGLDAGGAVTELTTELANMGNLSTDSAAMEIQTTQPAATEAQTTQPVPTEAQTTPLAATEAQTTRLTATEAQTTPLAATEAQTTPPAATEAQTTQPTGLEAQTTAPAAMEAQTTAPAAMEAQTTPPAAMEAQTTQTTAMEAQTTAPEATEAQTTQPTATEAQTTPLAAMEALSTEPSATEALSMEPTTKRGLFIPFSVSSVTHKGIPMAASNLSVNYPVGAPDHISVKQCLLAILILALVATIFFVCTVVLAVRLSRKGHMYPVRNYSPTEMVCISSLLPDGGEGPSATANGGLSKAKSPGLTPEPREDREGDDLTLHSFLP

[9] = Physiological stability of the compound in simulated intestinal bile salts-lecithin mixture fluid assessed as compound remaining after 4 hrs in presence of 20% acetonitrile; format: physicochemical; details: read-out: Stability
[10] = Solubility of the compound in fed simulated intestinal bile salts-lecithin mixture fluid at pH 5.5; format: physicochemical
[11] = Physiological stability of the compound at pH 1 assessed as compound remaining after 16 hrs in presence of 20% acetonitrile; format: physicochemical; details: read-out: Stability
[12] = tested on: Cynomolgus monkey; assay: Dose normalized AUC in cynomolgus monkey measured per mg of plasma at 5 mg/kg, iv and po; format: ADME, organism-based, Macaca fascicularis; design: dose 5 mg/kg, route oral; details: in vivo
[13] = tested on: Plasma; assay: Drug level in Sprague-Dawley rat plasma at 3 mg/kg, po; format: ADME, organism-based; design: dose 3 mg/kg, route oral; details: in vivo
[14] = Physiological stability of the compound in simulated intestinal fluid assessed as compound remaining after 20 hrs in presence of 20% acetonitrile; format: physicochemical; details: read-out: Stability
[15] = Physiological stability of the compound in simulated intestinal bile salts-lecithin mixture fluid assessed as compound remaining after 20 hrs in presence of 20% acetonitrile; format: physicochemical; details: read-out: Stability
[16] = Physiological stability of the compound at pH 6.6 assessed as compound remaining after 4 hrs in presence of 20% acetonitrile; format: physicochemical; details: read-out: Stability
[17] = tested on: Canis familiaris; assay: Dose normalized AUC in Beagle dog measured per mg of plasma at 2 mg/kg, iv and 10 mg/kg, po; format: ADME, organism-based, Canis lupus familiaris; details: in vivo
[18] = Physiological stability of the compound at pH 9 assessed as compound remaining after 16 hrs in presence of 20% acetonitrile; format: physicochemical; details: read-out: Stability
[19] = Solubility of the compound in simulated intestinal fluid; format: physicochemical
[20] = Physiological stability of the compound at pH 6.6 assessed as compound remaining after 24 hrs in presence of 20% acetonitrile; format: physicochemical; details: read-out: Stability
[21] = molecular target: T1, P-selectin glycoprotein ligand 1 (Homo sapiens); assay: Inhibition of recombinant PSGL-1 at 250 uM by surface plasmon resonance assay
[22] = tested on: Mus musculus; assay: Reduction of leukocytes rolling flux in acute intravital microscopy model of C57B6 mouse cremasteric postcapillary venules at 50 mg/kg, po after 35 mins relative to control; format: functional; design: scale not given: the % may be the effect or the level left
[23] = tested on: Mus musculus; assay: Dose normalized AUC in C57B6 mouse measured per mg of plasma at 2 mg/kg, iv and 10 mg/kg, po; format: ADME, organism-based; details: in vivo
[24] = Half life in Beagle dog liver microsomes; format: ADME, Canis lupus familiaris, Microsome
[25] = Physiological stability of the compound at pH 6.6 assessed as compound remaining after 8 hrs in presence of 20% acetonitrile; format: physicochemical; details: read-out: Stability
[26] = Physiological stability of the compound at pH 4.5 assessed as compound remaining after 16 hrs in presence of 20% acetonitrile; format: physicochemical; details: read-out: Stability
[27] = Physiological stability of the compound in simulated intestinal bile salts-lecithin mixture fluid assessed as compound remaining after 24 hrs in presence of 20% acetonitrile; format: physicochemical; details: read-out: Stability
[28] = Half life in cynomolgus monkey liver microsomes; format: ADME, Macaca fascicularis, Microsome
[29] = tested on: Rattus norvegicus; assay: Inhibition of leukocytes rolling flux in acute intravital microscopy Sprague-Dawley rat model at 30 mg/kg, po after 35 mins relative to control; format: functional
[30] = Oral bioavailability in Sprague-Dawley rat at 10 mg/kg; format: ADME, organism-based; details: in vivo
[31] = Physiological stability of the compound at pH 9 assessed as compound remaining after 8 hrs in presence of 20% acetonitrile; format: physicochemical; details: read-out: Stability
[32] = Aqueous solubility of the compound at pH 7.4; format: physicochemical; details: aqueous solution, read-out: solubility
[33] = Physiological stability of the compound in simulated intestinal fluid assessed as compound remaining after 16 hrs in presence of 20% acetonitrile; format: physicochemical; details: read-out: Stability
[34] = Physiological stability of the compound at pH 1 assessed as compound remaining after 4 hrs in presence of 20% acetonitrile; format: physicochemical; details: read-out: Stability
[35] = Aqueous solubility of the compound at pH 6.6; format: physicochemical; details: aqueous solution
[36] = Physiological stability of the compound in simulated intestinal bile salts-lecithin mixture fluid assessed as compound remaining after 12 hrs in presence of 20% acetonitrile; format: physicochemical; details: read-out: Stability
[37] = molecular target: Voltage-gated inwardly rectifying potassium channel KCNH2 (Homo sapiens, UniProt Q12809); assay: Inhibition of human ERG
Voltage-gated inwardly rectifying potassium channel KCNH2, sequence (Q12809 whole entry): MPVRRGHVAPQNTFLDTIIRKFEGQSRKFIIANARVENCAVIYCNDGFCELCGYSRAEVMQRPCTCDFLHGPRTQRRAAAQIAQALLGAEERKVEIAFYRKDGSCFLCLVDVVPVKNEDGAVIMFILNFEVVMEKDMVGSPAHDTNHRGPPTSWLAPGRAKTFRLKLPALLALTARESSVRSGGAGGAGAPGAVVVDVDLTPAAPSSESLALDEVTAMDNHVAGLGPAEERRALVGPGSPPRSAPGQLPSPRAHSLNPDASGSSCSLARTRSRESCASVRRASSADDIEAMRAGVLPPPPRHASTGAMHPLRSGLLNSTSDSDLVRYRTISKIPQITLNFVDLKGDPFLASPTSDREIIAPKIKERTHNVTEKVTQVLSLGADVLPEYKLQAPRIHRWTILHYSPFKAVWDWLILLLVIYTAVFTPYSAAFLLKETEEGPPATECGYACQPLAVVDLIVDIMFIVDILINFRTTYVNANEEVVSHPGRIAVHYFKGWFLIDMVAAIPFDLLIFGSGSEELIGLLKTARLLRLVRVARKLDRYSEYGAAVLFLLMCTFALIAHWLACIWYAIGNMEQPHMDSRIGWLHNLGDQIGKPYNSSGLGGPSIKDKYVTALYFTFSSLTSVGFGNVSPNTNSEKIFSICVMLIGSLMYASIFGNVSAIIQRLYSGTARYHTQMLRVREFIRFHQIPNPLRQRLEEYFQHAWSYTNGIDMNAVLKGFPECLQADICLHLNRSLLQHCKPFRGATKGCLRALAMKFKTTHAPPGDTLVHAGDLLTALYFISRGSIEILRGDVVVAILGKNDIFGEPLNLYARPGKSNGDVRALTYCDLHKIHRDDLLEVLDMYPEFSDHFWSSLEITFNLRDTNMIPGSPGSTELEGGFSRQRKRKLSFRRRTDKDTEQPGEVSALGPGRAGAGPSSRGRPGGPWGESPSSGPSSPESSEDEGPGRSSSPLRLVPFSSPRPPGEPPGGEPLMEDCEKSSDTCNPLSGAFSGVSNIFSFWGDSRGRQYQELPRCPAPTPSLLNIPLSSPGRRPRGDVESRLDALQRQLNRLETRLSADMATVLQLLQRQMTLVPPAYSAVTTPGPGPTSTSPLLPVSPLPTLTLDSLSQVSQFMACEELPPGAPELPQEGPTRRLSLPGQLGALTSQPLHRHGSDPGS

[38] = Physiological stability of the compound in simulated intestinal fluid assessed as compound remaining after 12 hrs in presence of 20% acetonitrile; format: physicochemical; details: read-out: Stability
[39] = Clearance in Sprague-Dawley rat at 3 mg/kg, iv and 10 mg/kg, po; format: ADME, organism-based; details: in vivo
[40] = Physiological stability of the compound at pH 6.6 assessed as compound remaining after 12 hrs in presence of 20% acetonitrile; format: physicochemical; details: read-out: Stability
[41] = Physiological stability of the compound at pH 7.4 assessed as compound remaining after 12 hrs in presence of 20% acetonitrile; format: physicochemical; details: read-out: Stability
[42] = Physiological stability of the compound at pH 6.6 assessed as compound remaining after 16 hrs in presence of 20% acetonitrile; format: physicochemical; details: read-out: Stability
[43] = Physiological stability of the compound at pH 4.5 assessed as compound remaining after 12 hrs in presence of 20% acetonitrile; format: physicochemical; details: read-out: Stability
[44] = Physiological stability of the compound at pH 4.5 assessed as compound remaining after 8 hrs in presence of 20% acetonitrile; format: physicochemical; details: read-out: Stability
[45] = tested on: Plasma; assay: Drug level in Sprague-Dawley rat plasma at 30 mg/kg, po; format: ADME, organism-based; design: dose 30 mg/kg, route oral; details: in vivo

With `O=C(O)c1c(O)c(C2(c3ccc(Cl)cc3)CC2)nc2c(C(F)(F)F)cccc12` the clearance [1] was 0.9 mL/min/kg, the bioavailability [2] was 96% and the remaining at 8 h [3] was 104%. The remaining at 4 h [4] was 102%, the remaining at 24 h [5] was 103% and the remaining at 20 h [6] was 101%. It also gave a remaining at 4 h [7] of 102%, an Activity [8] of 9% and a remaining at 4 h [9] of 102%. The solubility [10] was 835 µg/mL, the remaining at 16 h [11] was 102% and the AUC [12] was 84620 ng·h/mL. For the same molecule, the Cp [13] was 3000 ng/mL, the remaining at 20 h [14] was 99.4% and the remaining at 20 h [15] was 103%. The remaining at 4 h [16] was 102%, the AUC [17] was 28862 ng·h/mL and the remaining at 16 h [18] was 98.7%. The solubility [19] was 3950 µg/mL (≈ 9690 µM), the remaining at 24 h [20] was 104% and the inhibition [21] was 55%. For the same molecule, the Activity [22] was 69%, the AUC [23] was 1505 ng·h/mL and the half-life [24] was over 1 h. It also gave a remaining at 8 h [25] of 104%, a remaining at 16 h [26] of 101% and a remaining at 24 h [27] of 103%. The half-life [28] was over 1 h, the inhibition in vivo at 30 mg/kg [29] was 61% and the bioavailability [30] was 67%. The remaining at 8 h [31] was 98%, the solubility [32] was 165 µg/mL (≈ 405 µM) and the remaining at 16 h [33] was 101%. It also gave a remaining at 4 h [34] of 101%, a solubility [35] of 920 µg/mL (≈ 2260 µM) and a remaining at 12 h [36] of 101%. The “inhibition (INH)” value [37] was “Not Active”, the remaining at 12 h [38] was 101% and the clearance [39] was 0.7 mL/min/kg. For the same molecule, the remaining at 12 h [40] was 106%, the remaining at 12 h [41] was 102% and the remaining at 16 h [42] was 103%. It also gave a remaining at 12 h [43] of 99.2%, a remaining at 8 h [44] of 102% and a Cp [45] of 38000 ng/mL.
